From patent US5776929A, “Benzodiazepine derivative” (Shionogi & Co., Ltd., priority 1993, dated 1998)
Like-named read-outs stand apart in the source and are kept apart here.

How the values were obtained:
[1] = target: T1, CCK-A receptor (Mus musculus, UniProt O08786); experiment: CCK-A receptor antagonism, displacement of [3H]CCK-8, pancreas crude membrane; type: binding, mouse (male ddY)
T1 construct: crude membrane specimen from mouse pancreas; from tissue; host or cells: pancreas of male ddY mice, crude membranes
T1 sequence (O08786 1-436): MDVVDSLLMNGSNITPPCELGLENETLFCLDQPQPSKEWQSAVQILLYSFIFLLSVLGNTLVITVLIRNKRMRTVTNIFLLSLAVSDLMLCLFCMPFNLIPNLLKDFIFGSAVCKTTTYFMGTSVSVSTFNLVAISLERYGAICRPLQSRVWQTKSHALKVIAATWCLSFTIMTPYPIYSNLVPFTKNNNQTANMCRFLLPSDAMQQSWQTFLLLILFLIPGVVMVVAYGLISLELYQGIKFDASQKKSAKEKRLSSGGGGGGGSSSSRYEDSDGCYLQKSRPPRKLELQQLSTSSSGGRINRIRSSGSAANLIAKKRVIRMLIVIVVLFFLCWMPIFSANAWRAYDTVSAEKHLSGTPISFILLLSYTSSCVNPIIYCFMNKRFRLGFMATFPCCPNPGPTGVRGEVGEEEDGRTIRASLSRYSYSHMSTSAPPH
Experimental: (§1) Male Hartley guinea pig (450-600 g) or male ddY mouse (24-30 g) were used.
(§2) (2) CCK-A Receptor Antagonism and CCK-B Receptor Antagonism
(§3) Preparation of CCK receptor preparations
(§4) Male ddY mice (24 to 30 g) were killed by decapitation and cerebral cortex (CCK-B) and pancreas (CCK-A) were extracted immediately. Each of cerebral cortex and pancreas was mixed with 50 mM Tris-HCl buffer (pH 7.4) and homogenized with a teflon-glass homogenizer and polytron homogenizer to obtain crude membrane specimens.
(§5) Preparation of test compounds and procedures of displacing assay A 1M solution of a compound to be tested in DMSO is prepared and diluted with 50% DMSO to obtain a ten-fold dilution series.
(§6) The reaction is initiated by the addition of crude membrane specimen to solutions of different concentration each containing [^3 H]CCk-8 (final concentration, 1 nM). The mixture is incubated for 90 min at 25° C., filtered through glass filter with aspiration and washed with a cooled 50 mM Tris buffer. After the addition of Aquazol-2 cocktail the radioactivity is counted. The same procedure was repeated using 50% DMSO solution or Ceruletide (final concentration, 1 μM) instead of a solution of test compound so as to obtain the control value regarding total binding or the value regarding non-specific binding, respectively. […]
(§7) specific binding of control=total binding (cpm)-non-specific binding (cpm); and specific binding of test compound=[…]-non-specific binding (cpm).

[2] = target: T2, CCK-B receptor (Mus musculus, UniProt P56481); experiment: CCK-B receptor antagonism, displacement of [3H]CCK-8, cerebral cortex crude membrane; type: binding, mouse (male ddY)
T2 construct: crude membrane specimen from mouse cerebral cortex; from tissue; host or cells: cerebral cortex of male ddY mice, crude membranes
T2 sequence (P56481 1-453): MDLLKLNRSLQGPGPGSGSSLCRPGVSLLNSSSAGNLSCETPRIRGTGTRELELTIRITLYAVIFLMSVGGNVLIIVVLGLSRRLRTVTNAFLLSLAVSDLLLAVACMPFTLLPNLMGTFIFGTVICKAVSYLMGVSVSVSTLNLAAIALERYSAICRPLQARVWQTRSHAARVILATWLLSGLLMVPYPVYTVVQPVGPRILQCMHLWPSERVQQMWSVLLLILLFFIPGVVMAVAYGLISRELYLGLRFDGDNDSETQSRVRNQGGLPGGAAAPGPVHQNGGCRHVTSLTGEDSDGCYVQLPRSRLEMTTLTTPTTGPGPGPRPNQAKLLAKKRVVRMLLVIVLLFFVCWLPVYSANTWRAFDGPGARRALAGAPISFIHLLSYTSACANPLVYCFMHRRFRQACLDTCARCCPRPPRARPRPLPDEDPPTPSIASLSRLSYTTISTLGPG
Experimental: as §1, §2, §3, §4, §5, §6, §7

[3] = target: T3, gastrin receptor (Cavia porcellus, UniProt H0VZC5); experiment: Gastrin receptor antagonism, displacement of 125I-labeled gastrin, gastric (fundic) gland cells; type: binding, guinea pig (male Hartley)
T3 construct: stomach was extracted from each animal immediately, from which gastric glands were prepared; from tissue; host or cells: gastric (fundic) glands of male Hartley guinea pigs
T3 sequence (H0VZC5 1-426): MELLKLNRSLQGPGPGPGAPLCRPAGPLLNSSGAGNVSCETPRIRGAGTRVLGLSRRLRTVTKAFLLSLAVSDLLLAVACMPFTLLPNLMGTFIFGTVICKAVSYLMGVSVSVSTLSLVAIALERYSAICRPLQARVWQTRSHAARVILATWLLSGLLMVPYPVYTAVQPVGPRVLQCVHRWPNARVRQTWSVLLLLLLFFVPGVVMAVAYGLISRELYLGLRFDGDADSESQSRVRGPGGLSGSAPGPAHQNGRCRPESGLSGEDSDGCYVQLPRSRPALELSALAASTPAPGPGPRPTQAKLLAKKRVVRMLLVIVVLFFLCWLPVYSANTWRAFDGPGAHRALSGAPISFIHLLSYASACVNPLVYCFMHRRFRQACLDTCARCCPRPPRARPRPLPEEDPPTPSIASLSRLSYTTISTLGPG
Experimental: as §1
(1) Gastrin Receptor Antagonism
Preparation of gastric glands:
Male Hartley guinea pigs (450-600 g) were killed by bleeding and stomach was extracted from each animal immediately, from which gastric glands were prepared.
Preparation of test compounds and procedures of displacing assay
A 1M solution of a compound to be tested in DMSO is prepared and diluted with 50% DMSO to obtain a ten-fold dilution series.
The mixture is incubated for 30 min at 25° C., centrifuged at 2000 rpm for 5 min and the supernatant is removed by aspiration. To the pellet is added ice-cooled incubation buffer and mixed gently, followed by an immediate centrifugation and removal of the supernatant by aspiration. The radioactivity is counted on gamma counter. The same procedure was repeated using 50% DMSO solution or human gastrin I (final concentration, 2 μM) instead of a solution of test compound so as to obtain the control value regarding total binding or the value regarding non-specific binding, respectively. […]
as §7

[4] = mouse pancreas membrane, [3H]CCK-8 1 nM, 90 min, 25 °C, read-out: Receptor CCK-A (IC50)
[5] = mouse cerebral cortex membrane, [3H]CCK-8 1 nM, 90 min, 25 °C, read-out: Receptor CCK-B (IC50)
[6] = guinea pig gastric glands, 125I-gastrin 0.2 nM, 30 min, 25 °C, read-out: Receptor Gastrin (IC50)

SMILES: Cc1cccc(NC(=O)NC2C(=O)N(CC(=O)OC(C)(C)C)c3ccccc3N(CC(=O)OC(C)(C)C)C2=O)c1 [Compound 8s, 1,5-Bis-(t-butoxycarbonylmethyl)-3-(N'-(m-tolyl)ureido)-1H-1,5-benzodiazepine-2,4(3H,5H)-dione]
- IC50 [1, 4]: 0.1 µM
- IC50 [2, 5]: 0.002 µM
- IC50 [3, 6]: 0.002 µM

SMILES: COC(=O)CCCNC(=O)OCc1cccc(NC(=O)NC2C(=O)N(CC(=O)N3CCCC3)c3ccccc3N(CC(=O)N3CCCC3)C2=O)c1 [Compound 9a, 1,5-Bis-(pyrrolidinecarbonylmethyl)-3-(N'-(3-(3-(carbomethoxy)propylcarbamoyloxymethyl)phenyl)ureido)-1H-1,5-benzodiazepine-2,4(3H,5H) -dione]
- IC50 [1, 4]: 2.1 µM
- IC50 [2, 5]: 0.13 µM
- IC50 [3, 6]: 0.008 µM

SMILES: COC(=O)CCCNC(=O)OCc1cccc(NC(=O)NC2C(=O)N(CC(=O)N3CCSC3)c3ccccc3N(CC(=O)N3CCSC3)C2=O)c1 [Compound 9b, 1,5-Bis-(thiazolidinecarbonylmethyl)-3-(N'-(3-(3-(carbomethoxy)propylcarbamoyloxymethyl)phenyl)ureido)-1H-1,5-benzodiazepine-2,4(3H,5H)-dione]
- IC50 [1]: 0.36 µM
- IC50 [2]: 0.12 µM
- IC50 [3]: 0.014 µM

SMILES: COC(=O)CCCNC(=O)OCc1cccc(NC(=O)NC2C(=O)N(CC(=O)c3ccccc3C)c3ccccc3N(CC(=O)c3ccccc3C)C2=O)c1 [Compound 9d, 1,5-Bis-(o-methylphenacyl)-3-(N'-(3-(3-(carbomethoxy)propylcarbamoyloxymethyl)phenyl)ureido)-1H-1,5-benzodiazepine-2,4(3H,5H)-dione]
- IC50 [1, 4]: < 0.1 µM
- IC50 [2, 5]: 0.011 µM
- IC50 [3, 6]: 0.006 µM

SMILES: COC(=O)CCCNC(=O)OCc1cccc(NC(=O)NC2C(=O)N(CC(=O)c3ccco3)c3ccccc3N(CC(=O)c3ccco3)C2=O)c1 [Compound 9f, 1,5-Bis-(2-furylcarbonylmethyl)-3-(N'-(3-(3-(carbomethoxy)propylcarbamoyloxymethyl)phenyl)ureido) -1H-1,5-benzodiazepine-2,4(3H,5H)-dione]
- IC50 [1, 4]: 1.4 µM
- IC50 [2, 5]: 0.062 µM
- IC50 [3, 6]: 0.007 µM

SMILES: COC(=O)CCCNC(=O)OCc1cccc(NC(=O)NC2C(=O)N(CC(=O)c3cccs3)c3ccccc3N(CC(=O)c3cccs3)C2=O)c1 [Compound 9g]
- IC50 [1, 4]: 0.42 µM
- IC50 [2, 5]: 0.007 µM
- IC50 [3, 6]: 0.003 µM

SMILES: COC(=O)CCCNC(=O)OCc1cccc(NC(=O)NC2C(=O)N(CC(=O)C3CC3)c3ccccc3N(CC(=O)C3CC3)C2=O)c1 [Compound 9h, 1,5-Bis-(cyclopropylcarbonylmethyl)-3-(N'-(3-(3-(carbomethoxy)propylcarbamoyloxymethyl)phenyl)ureido)-1H-1,5-benzodiazepine-2,4(3H,5H)-dione]
- IC50 [1, 4]: 1.25 µM
- IC50 [2, 5]: 0.02 µM
- IC50 [3, 6]: 0.004 µM

SMILES: COC(=O)CCCNC(=O)OCc1cccc(NC(=O)NC2C(=O)N(CC(=O)C3CCCC3)c3ccccc3N(CC(=O)C3CCCC3)C2=O)c1 [Compound 9i, 1,5-Bis-(cyclopentylcarbonylmethyl)-3-(N'-(3-(3-(carbomethoxy)propylcarbamoyloxymethyl)phenyl)ureido)-1H-1,5-benzodiazepine-2,4(3H,5H)-dione]
- IC50 [1, 4]: 0.29 µM
- IC50 [2, 5]: 0.002 µM
- IC50 [3, 6]: 0.007 µM

SMILES: COC(=O)CCCNC(=O)OCc1cccc(NC(=O)NC2C(=O)N(CC3CC3)c3ccccc3N(CC3CC3)C2=O)c1 [Compound 9o, 1,5-Bis-(cyclopropylmethyl)-3-(N'-(3-(3-(carbomethoxy)propylcarbamoyloxymethyl)phenyl)ureido)-1H-1,5-benzodiazepine-2,4(3H,5H)-dione]
- IC50 [1, 4]: 3.9 µM
- IC50 [2, 5]: 0.078 µM
- IC50 [3, 6]: 0.031 µM

SMILES: O=C(CN1C(=O)C(NC(=O)Nc2cccc(COC(=O)NCCCC(=O)OCc3ccccc3)c2)C(=O)N(CC(=O)NC2CC2)c2ccccc21)NC1CC1 [Compound 10c, 1,5-Bis-(cyclopropylcarbamoylmethyl)-3-(N'-(3-(3-(benzoyloxycarbonyl)propylcarbamoyloxymethyl)-phenyl)ureido)-1H-1,5-benzodiazepine-2,4 (3H,5H)-dione]
- IC50 [1, 4]: 2.1 µM
- IC50 [2, 5]: 0.38 µM
- IC50 [3, 6]: 0.064 µM

SMILES: CC(C)(C)OC(=O)CN1C(=O)C(NC(=O)Nc2cccc(COC(=O)NCCCC(=O)OCc3ccccc3)c2)C(=O)N(CC(=O)OC(C)(C)C)c2ccccc21 [Compound 10s, 1,5-Bis-(tert-butoxycarbonylmethyl)-3-(N'-(3-(3-(benzyloxycarbonyl)propylcarbamoyloxymethyl)phenyl)-ureido)-1H-1,5-benzodiazepine-2,4(3H,5H)-dione]
- IC50 [1, 4]: < 0.1 µM
- IC50 [2, 5]: 0.004 µM
- IC50 [3, 6]: 0.007 µM

SMILES: O=C(O)CCCNC(=O)OCc1cccc(NC(=O)NC2C(=O)N(CC(=O)c3ccco3)c3ccccc3N(CC(=O)c3ccco3)C2=O)c1 [Compound 11f, 1,5-Bis-(2-furylcarbonylmethyl)-3-(N'-(3-(3-(carboxy)propylcarbamoyloxymethyl)phenyl)ureido)-1H-1,5-benzodiazepine-2,4(3H,5H)-dione]
- IC50 [1, 4]: 0.8 µM
- IC50 [2, 5]: 0.038 µM
- IC50 [3, 6]: 0.006 µM

SMILES: O=C(O)CCCNC(=O)OCc1cccc(NC(=O)NC2C(=O)N(CC3CC3)c3ccccc3N(CC3CC3)C2=O)c1 [Compound 11o, 1,5-Bis-(cyclopropylmethyl)-3-(N'-(3-(3-(carboxy)propylcarbamoyloxymethyl)phenyl)ureido)-1H-1,5-benzodiazepine-2,4(3H,5H)-dione]
- IC50 [1, 4]: 1.85 µM
- IC50 [2, 5]: 0.036 µM
- IC50 [3, 6]: 0.018 µM

SMILES: CCOC(=O)c1cccc(NC(=O)NC2C(=O)N(CC(=O)N3CCCC3)c3ccccc3N(CC(=O)N3CCCC3)C2=O)c1 [Compound 18-i, 1,5-Bis-(pyrrolidinocarbonylmethyl)-3-(N'-(m-(carboethoxy)phenyl)ureido)-1H-1,5-benzodiazepine-2,4(3H,5H)-dione]
- IC50 [1, 4]: 3.2 µM
- IC50 [2, 5]: 0.44 µM
- IC50 [3, 6]: 0.025 µM
